Key:
[1] = molecular target: T1, unphosphorylated T315I Abl kinase domain (Mus musculus, UniProt P00520, T315I); experiment: c-Abl T315I 0P bioassay (pyruvate kinase/lactate dehydrogenase coupled enzyme assay); assay type: biochemical; conditions: zero phosphorylation state (0P), 10 μM ATP, read-out: AbI T315I 0P IC50
T1 construct: purified and unphosphorylated T315I Abl kinase domain; made in house; host or cells: E. coli BL21(DE3) (Codon+RIL or pSA0145 strain)
T1 sequence (P00520 242-493 T315I limits assumed): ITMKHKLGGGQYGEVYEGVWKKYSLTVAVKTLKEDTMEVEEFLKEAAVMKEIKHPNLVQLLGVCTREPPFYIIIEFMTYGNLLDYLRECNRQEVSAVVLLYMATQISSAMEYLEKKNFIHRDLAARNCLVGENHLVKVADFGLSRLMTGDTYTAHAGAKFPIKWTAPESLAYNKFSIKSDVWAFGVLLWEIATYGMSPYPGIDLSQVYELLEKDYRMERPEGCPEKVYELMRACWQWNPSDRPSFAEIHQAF
From the text: Although the first of these examples uses the kinase domain of a mutant form of Abl T315I (“Abl T315I KD”), the kinase assays may use various forms of mutant and wild type enzymes, including, for example, the entire protein, the kinase domain, or a portion thereof (e.g. Abl Y393F). The kinases used in the assays may also be of varying phosphorylation states. In the c-Abl example, a mutant kinase at a zero phosphorylation state was used. c-Abl Pyruvate Kinase/Lactate Dehydrogenase Coupled Enzyme Assay
In the c-Abl Pyruvate Kinase (PK)/Lactate Dehydrogenase (LDH) Coupled Assay the protein kinase dependant phosphorylation of a substrate peptide was coupled to the oxidation of NADH. The oxidation of NADH to NAD+ was detected by monitoring a decrease in absorbance at 340 nm.
Materials: Abl substrate peptide=EAIYAAPFAKKK (SEQ ID NO: 1)—OH (Biopeptide, San Diego, Calif.); pNADH (Sigma Cat#N-8129, FW=709.4); 2M MgC12; 1M HEPES buffer, pH 7.5; Phosphoenolpyruvate (PEP) (Sigma Cat#P-7002, FW=234); Lactate dehydrogenase (LDH) (Worthington Biochemical Cat#2756); Pyruvate Kinase (PK) (Sigma Cat#P-9136); ATP (Sigma Cat#A-3377, FW=551); Greiner 384-well UV star plate; and purified and unphosphorylated T315I Abl kinase domain.
Stock Solutions: 10 mM NADH (7.09 mg/ml in miliQH2O) made fresh daily; 10 mM Abl substrate peptide (13.4 mg/ml in miliQH2O) stored at −20° C.; 100 mM HEPES buffer, pH 7.5 (5 ml 1M stock+45 ml miliQH2O); 100 mM MgCl2 (5 ml 2M MgCl2+95 ml dH2O); 100 MM PEP (23.4 mg/ml in dH2O) stored at −20° C.; 10 mM ATP (5.51 mg/ml in dH2O) stored at −20° C. (diluted 50 μl into total of 10 ml miliQH2O daily=50 μM ATP working stock); 1000 U/ml PK (U/mg varies with lot) flash-frozen under liquid N2 and stored at −80° C.; and 1000 U/ml LDH (U/mg varies with lot) flash-frozen under liquid N2 and stored at −80° C.
Standard Assay Setup for 384-well format (50 μl reaction): 300 μM NADH; 10 mM MgCl2; 2 mM PEP; 45U/ml PK; 60 U/ml LDH; 200 μM Abl substrate peptide; 2.5 μl test compound (in DMSO); 2 μg/ml Abl kinase domain; 10 μM ATP; 100 mM HEPES buffer. Positive controls contained DMSO with no test compound. Negative controls contained 5 μl of 0.5M EDTA (50 mM in the assay). The dephosphorylated form of the c-Abl T315I mutant was used in the biochemical screening assays. The kinase reaction was initiated at time t=0 by the addition of ATP.
Activity was measured by following the time-dependent loss of NADH by absorbance spectroscopy at 340 nm. The linear portion of the resulting progress curve was then analyzed by linear regression to get the activity in absorbance units/time, reported as the slope of that best fit line (moles/unit time can be calculated from using molar extinction coefficient for NADH at 340 nm, 6250M^−1 cm^−1).
Data was evaluated using the equation: Z′=1−[3*(σ++σ−)/|μ+−μ−|](Zhang, et al., 1999 J Biomol Screening 4(2) 67-73), where μ denotes the mean and σ the standard deviation. The subscript designates positive or negative controls. The Z′ score for a robust screening assay should be ≧0.50. The typical threshold=μ+−3*σ+. Any value that falls below the threshold was designated a “hit”.
Dose response was analyzed using the equation: y=min+{(max−min)/(1+10^[compound]−logIC50)}, where y is the observed initial slope, max=the slope in the absence of inhibitor, min=the slope at infinite inhibitor, and the IC50 is the [compound] that corresponds to ½ the total observed amplitude (Amplitude=max−min).
To measure modulation, activation, or inhibition of Abl KD, a test compound was added to the assay at a range of concentrations. Inhibitors may inhibit Abl KD activity at an IC50 in the micromolar range, the nanomolar range, or, for example, in the subnanomolar range.
An open-reading frame for c-Abl was amplified from a Mus musculus (mouse) cDNA library prepared from freshly harvested mouse liver using a commercially available kit (invitrogen) by PCR using the following primers: […]
The c-Abl T315I KD (kinase domain) was purified as follows. […]

Ba/F3 cells, ABL1 T315I = Ba/F3 cells, ABL1 T315I (Homo sapiens, UniProt P00519, T315I, cells depend on it); experiment: 96-well XTT cell survival assay, Ba/F3 ABL1 T315I; assay type: cell-based; conditions: 72 hours, read-out: ABL1 T315I XTT [Ba/F3] IC50
Protocol: (§1) MV4-11 and THP cells were maintained in Iscove's Modified Dulbecco's Medium supplemented with 10% fetal bovine serum (FBS) and penicillin/streptomycin, Ba/F3 cells were maintained in RPMI 1640 supplemented with 10% FBS, penicillin/streptomycin and 5 ng/ml recombinant mouse IL-3.
(§2) Compounds were tested in the following assays in duplicate.
(§3) 96-well XTT assay: Cells (e.g. BaF3 315I, M351I, or E255K cells) were grown in growth media containing various concentrations of compounds (duplicates) on a 96-well plate for 72 hours at 37° C. The starting cell number was 5000-8000 cells per well and volume was 120 μl. At the end of the 72-hour incubation, 40 μl of XTT labeling mixture (50:1 solution of sodium 3′-[1-(phenylamino-carbonyl)-3,4-tetrazolium]-bis(4-methoxy-6-nitro)benzene sulfonic acid hydrate and Electron-coupling reagent: PMS (N-methyl dibenzopyrazine methyl sulfate) were added to each well of the plate. After an additional 2-6 hours of incubation at 37° C., the absorbance reading at 405 nm with background correction at 650 nm was measured with a spectrophotometer.

Ba/F3 cells, ABL1 WT = Ba/F3 cells, ABL1 WT (Homo sapiens, UniProt P00519); experiment: 96-well XTT cell survival assay, Ba/F3 ABL1 WT; assay type: cell-based; conditions: 72 hours, read-out: ABL1 WT XTT [Ba/F3] IC50
Protocol: as §1, §2, §3

IC50 [1] [nM]	Structure (SMILES)	GI50 (Ba/F3 cells, ABL1 T315I) [nM]	GI50 (Ba/F3 cells, ABL1 WT) [nM]
< 50	COc1ccccc1-c1c[nH]c2ncc(-c3cccc(C(N)CC(=O)N(C)C)c3)cc12 (stereo not drawn)	> 1000	> 1000
> 500	COc1ccccc1-c1c[nH]c2ncc(-c3cc(C(C#N)C(=O)N(C)C)ncn3)cc12 (stereo not drawn)	> 1000	> 1000
< 50	COc1ccccc1-c1c[nH]c2ncc(-c3cccc(C(O)C(=O)N(C)Cc4ccnn4C)c3)cc12 (stereo not drawn)	< 1000	< 1000
< 50	COc1ccccc1-c1n[nH]c2ncc(-c3cccc(C(O)C(=O)N(C)C)n3)cc12 (stereo not drawn)	> 1000	> 1000
< 50	COc1ccccc1-c1c[nH]c2ncc(-c3cccc(C(O)C(=O)N(C)C)n3)cc12 (stereo not drawn)	> 1000	> 1000
< 50	COc1ccccc1-c1c[nH]c2ncc(-c3cccc(C(O)C(=O)N(C)CCN(C)C)n3)cc12 (stereo not drawn)	> 1000	> 1000
< 50	COc1ccccc1-c1c[nH]c2ncc(-c3cncc(C(O)C(=O)N(C)C(C)C)c3)cc12 (stereo not drawn)	< 1000	> 1000
< 50	CCN(C)C(=O)C(O)c1cncc(-c2cnc3[nH]cc(-c4ccccc4OC)c3c2)c1 (stereo not drawn)	< 1000	< 1000
< 50	COc1ccccc1-c1c[nH]c2ncc(-c3cncc(C(O)C(=O)N(C)Cc4ccnn4C)c3)cc12 (stereo not drawn)	< 1000	< 1000
50 to 500	COc1ccccc1-c1c[nH]c2ncc(-c3cc(C(O)C(=O)N(C)C)ncn3)cc12 (stereo not drawn)	> 1000	> 1000
< 50	COc1ccccc1-c1c[nH]c2ncc(-c3ccnc(C(O)C(=O)N(C)C)c3)cc12 (stereo not drawn)	> 1000	> 1000
< 50	COc1ccccc1-c1c[nH]c2ncc(-c3cccc(C(F)C(=O)N(C)C)c3)cc12 (stereo not drawn)	> 1000	> 1000
< 50	COc1ccccc1-c1c[nH]c2ncc(-c3cc(C(O)C(=O)N(C)C)ccn3)cc12 (stereo not drawn)	> 1000	> 1000
50 to 500	COc1ccccc1-c1c[nH]c2ncc(-c3ccnc(C(O)C(=O)N(C)C)n3)cc12 (stereo not drawn)	> 1000	> 1000

Continued, compound first:

Structure (SMILES)	IC50 [1] [nM]	GI50 (Ba/F3 cells, ABL1 T315I) [nM]	GI50 (Ba/F3 cells, ABL1 WT) [nM]
COc1ccccc1-c1c[nH]c2ncc(-c3cccc(C(C(=O)N4CCC[C@@H]4CO)N4CCNCC4)c3)cc12 (stereo partly drawn)	< 50	> 1000	> 1000
COc1ccccc1-c1c[nH]c2ncc(-c3cccc(C(N)CC(=O)N(C)CCN(C)C)c3)cc12 (stereo not drawn)	< 50	> 1000	> 1000
COc1ccccc1-c1n[nH]c2ncc(-c3cccc(C(O)c4ncccc4C)c3)cc12 (stereo not drawn)	< 50	< 1000	< 1000
COc1ccccc1-c1n[nH]c2ncc(-c3cccc([C@H](O)[C@@H](O)C(C)C)c3)cc12	< 50	< 1000	< 1000
CC[C@H](O)[C@@H](O)c1cccc(-c2cnc3[nH]nc(-c4ccccc4OC)c3c2)c1	< 50	< 1000	< 1000
CC[C@@H]1OCO[C@H]1c1cccc(-c2cnc3[nH]nc(-c4ccccc4OC)c3c2)c1	< 50	> 1000	> 1000
COc1ccccc1-c1n[nH]c2ncc(-c3cccc([C@@H](O)[C@H](O)C(C)C)c3)cc12	< 50	< 1000	< 1000
COc1ccccc1-c1n[nH]c2ncc(-c3cccc([C@H]4OCO[C@@H]4C(C)C)c3)cc12	< 50	> 1000	> 1000
COc1ccccc1-c1n[nH]c2ncc(-c3cccc([C@H](O)[C@H](O)C(C)C)c3)cc12	< 50	< 1000	< 1000
COc1ccccc1-c1n[nH]c2ncc(-c3cccc([C@@H]4OCO[C@@H]4C(C)C)c3)cc12	< 50	> 1000	> 1000
COc1ccccc1-c1n[nH]c2ncc(-c3cccc(C(O)C(=O)N(C)CCN(C)C)n3)cc12 (stereo not drawn)	< 50	> 1000	> 1000
COc1ccccc1-c1c[nH]c2ncc(-c3cccc(C(O)C(=O)N(C)CCNC4CC4)c3)cc12 (stereo not drawn)	< 50	< 1000	< 1000
CC[C@H](O)[C@@H](O)c1cccc(-c2cnc3[nH]cc(-c4ccccc4OC)c3c2)c1	< 50	< 1000	< 1000
